Where two headings read alike, the source gives them in different places.
Assays:
SETD2(1434-1711) = target: T1, SETD2(1434-1711) (Homo sapiens, UniProt Q9BYW2); experiment: SETD2 (1434-1711) assay; assay type: biochemical
T1 construct: SETD2 (1434-1711) Assay; catalogue N/A
T1 sequence (Q9BYW2 1434-1711): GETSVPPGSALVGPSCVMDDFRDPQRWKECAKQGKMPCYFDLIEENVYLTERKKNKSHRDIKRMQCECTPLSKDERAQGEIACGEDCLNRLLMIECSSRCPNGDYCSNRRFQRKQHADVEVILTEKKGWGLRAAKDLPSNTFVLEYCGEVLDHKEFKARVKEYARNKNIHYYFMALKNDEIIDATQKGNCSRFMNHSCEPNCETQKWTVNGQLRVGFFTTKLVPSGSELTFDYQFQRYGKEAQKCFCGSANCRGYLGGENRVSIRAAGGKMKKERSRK

H3K36me3 in A549 cells = experiment: In-Cell Western (ICW) assay of SETD2 inhibitors (A549 assay); assay type: cell-based, human
How it was run: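 H3K36me3 In-Cell Western: cells exposed to compound for 3 days at 4,000 cells/well, 37° C. DRAQ5 (1:1000) marked cell number, with 700/800-channel Licor read-out.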

[1] = Homo sapiens, A549 cells, read-out: SETD2 A549
[2] = A549 cells, read-out: SETD2 A549

Row | Compound | IC50 (SETD2(1434-1711); read-out: SETD2 (1434-1711)) | IC50 (H3K36me3 in A549 cells; [1]) | IC50 (H3K36me3 in A549 cells; [2]) | IC50 (SETD2(1434-1711)) | IC50 (H3K36me3 in A549 cells; Homo sapiens, A549, read-out: SETD2 A549)
1 | Cc1ccc(F)c2cc(C(=O)Nc3cccc(N4CCC(N)CC4)c3)[nH]c12 [compound 192] | 30 nM | 400 nM |  |  | 
2 | CNC(=O)CCc1cccc(NC(=O)c2cc3c(F)ccc(C)c3[nH]2)c1 [compound 293] | 400 nM | 1100 nM |  |  | 
3 | Cc1ccc(F)c2cc(C(=O)Nc3cc(Cl)cc(N4CCN(C)CC4)c3)[nH]c12 [compound 91] | 10 nM |  | 200 nM |  | 
4 | Cc1ccc(F)c2cc(C(=O)N[C@@H]3CCC[C@@H](N4CCC(N5CCCC5=O)C4)C3)[nH]c12 (stereo partly shown) [compound 911] | 1000 nM | > 2000 nM |  |  | 
5 | Cc1cccc2cc(C(=O)Nc3ccc4ccccc4c3)[nH]c12 [compound 526] | 1900 nM | 22600 nM |  |  | 
6 | Cc1cccc(O)c1C(NC(=O)c1cc2cccc(C)c2[nH]1)C1CC1 (stereo not shown) [compound 492] | > 50000 nM | 12500 nM |  |  | 
7 | Cc1ccc(F)c2cc(C(=O)Nc3cccc(N4CCC(CN(C)C)CC4)c3)[nH]c12 [compound 117] | 20 nM |  | 200 nM |  | 
8 | Cc1cccnc1C(Cc1cnn(CC2CC2)c1)NC(=O)c1cc2c(F)ccc(C)c2[nH]1 (stereo not shown) [compound 141] | 40 nM | 300 nM |  |  | 
9 | Cc1ccc(F)c2cc(C(=O)Nc3cccc(N4CC[C@@H](N(C)C)C[C@H]4C)c3)[nH]c12 [compound 308] | 100 nM | 1300 nM |  |  | 
10 | Cc1ccc(F)c2cc(C(=O)Nc3cccc(N4CCN5C(=O)CCC5C4)c3)[nH]c12 (stereo not shown) [compound 27] | 20 nM |  | 70 nM |  | 
11 | Cc1ccc(F)c2cc(C(=O)Nc3cccc(N4CC5(CCN(CC(F)F)CC5)C4)c3)[nH]c12 [compound 41] | 30 nM |  | 100 nM |  | 
12 | Cc1ccc(F)c2cc(C(=O)Nc3cc(F)cc([C@H]4CC[C@@H](N5CCOCC5)CC4)c3)[nH]c12 [compound 35] | 6 nM | 80 nM |  |  | 
13 | Cc1ccc(F)c2cc(C(=O)Nc3cccc(N4CCN(C5CCOC5)CC4)c3)[nH]c12 (stereo not shown) [compound 146] | 200 nM | 300 nM |  |  | 
14 | CC(=O)N1CCN([C@@H]2CCC[C@@H](NC(=O)c3cc4c(F)ccc(C)c4[nH]3)C2)[C@@H](C)C1 [compound 1074] | 4500 nM | > 2000 nM |  |  | 
15 | CC(=O)N1CC2CC(C1)N2c1cccc(NC(=O)c2cc3c(F)ccc(C)c3[nH]2)c1 [compound 365] | 2600 nM |  | > 2000 nM |  | 
16 | Cc1ccc(F)c2cc(C(=O)NC3CCCC(N4CCN5C(=O)OCC5C4)C3)[nH]c12 (stereo not shown) [compound 1134] | 1000 nM |  | > 2000 nM |  | 
17 | Cc1cccnc1C(C)(C)NC(=O)c1cc2cccc(C)c2[nH]1 [compound 595] | > 50000 nM |  | > 25000 nM |  | 
18 | Cc1ccc(F)c2cc(C(=O)Nc3cccc([C@H]4CCN5C(=O)CC[C@H]5C4)c3)[nH]c12 [compound 90] | 30 nM |  | 200 nM |  | 
19 | CC(=O)N1CCN(C2CCCC(NC(=O)c3cc4c(F)ccc(C)c4[nH]3)C2)CC1C(F)(F)F (stereo not shown) [compound 1018] | 30 nM |  | 70 nM |  | 
20 | Cc1ccc(F)c2cc(C(=O)NC3CCCN(CC(=O)N(C)C)C3)[nH]c12 (stereo not shown) [compound 377] | > 10000 nM | > 2000 nM |  |  | 
21 | Cc1ccc(F)c2cc(C(=O)Nc3cccc(N4CCN(CCO)CC4)c3)[nH]c12 [compound 204] |  |  |  | 80 nM | 400 nM
22 | CN/C(=N\C#N)N1CCN([C@H]2CCC[C@@H](NC(=O)c3cc4c(F)ccc(C)c4[nH]3)C2)CC1 [compound 1114] | 40 nM | 1600 nM |  |  | 
23 | COCC(=O)N1CCN(c2cccc(NC(=O)c3cc4c(F)ccc(C)c4[nH]3)c2)CC1 [compound 44] | 40 nM | 100 nM |  |  | 
24 | Cc1ccc(CN2CCOCC2)cc1NC(=O)c1cc2cccc(C)c2[nH]1 [compound 442] | 2100 nM | 5100 nM |  |  | 
25 | Cc1ccc(F)c2cc(C(=O)Nc3cc(Cl)cc([C@H]4CC[C@H](N(C)C)CC4)c3)[nH]c12 [compound 339] | 40 nM | 1700 nM |  |  | 
26 | Cc1ccc(F)c2cc(C(=O)Nc3cn(C4CCN(C)CC4)cn3)[nH]c12 [compound 561] | > 10000 nM | > 25000 nM |  |  | 
27 | Cc1ccc(F)c2cc(C(=O)Nc3cccc(-c4ccn(C)n4)c3)[nH]c12 [compound 394] | 200 nM | 2100 nM |  |  | 
28 | Cc1ccc(F)c2cc(C(=O)N[C@@H]3CCC[C@H](c4ccncn4)C3)[nH]c12 [compound 1003] | 30 nM | 200 nM |  |  | 
29 | Cc1ccc(F)c2cc(C(=O)NC3CNCCc4ccccc43)[nH]c12 (stereo not shown) [compound 364] | 2000 nM |  | > 2000 nM |  | 

Reference: patent publication US12116358B2, “Substituted indoles and methods of use thereof” (EPIZYME, INC., priority 2018, dated 2024)
